Reference: patent US6569633B1, “Modulation of the sulfonylurea receptor and calcium in adipocytes for treatment of obesity/diabetes” (Artecel Science, Inc., priority 1998, dated 2003)

Columns and labels:
human adipocytes [1] = assay: Triglyceride accumulation in human adipocytes; assay type: cell-based; conditions: for triglyceride content: control 30.3±0.3
Description: Human subcutaneous abdominal adipocytes were isolated from healthy patients undergoing cosmetic liposuction using methodology we have previously described. Briefly, the tissue was washed several times with Hank's Balanced Salt Solution, minced into small fragments and digested with type I collagenase (1 mg/mL) in a shaking water bath at 37° C. for 30-40 minutes. Cells were then filtered through a sterile nylon filter (500 μm mesh) and cultured in Dulbecco's Modified Eagle's Medium (DMEM) supplemented with 1% fetal bovine serum, 1% bovine serum albumin, 100 U/mL penicillin, 100 μg/mL streptomycin and 50 μg/mL gentamicin. Cells were subsequently cultured in suspension in sterile polypropylene flasks in a humidified 37° C./5% CO2 incubator. After one day, suspended (floating) adipocytes were transferred to fresh medium and maintained as a thin layer at the top of the culture medium to ensure access to nutrients. The cells were maintained for another 24 hours in this medium and then changed to fresh medium with the addition of SUR agonists (such as glibenclamide) for up to 48 hours with the compounds to be tested. Medium was changed every 24 hours, and cell viability was verified with trypan blue exclusion at the end of representative experiments.
Stimulation of fatty acid synthase and concomitant inhibition of lipolysis results in increased lipid accumulation in human adipocytes. Adipocytes were treated as described above, harvested, and their triglyceride content was analyzed and normalized for protein content. […] Thus, these calcium-stimulated biochemical activities will contribute to the development of adipocyte hypertrophy and potentially obesity.

[2] = tested on: FAS activity in human adipocytes; assay: Fatty acid synthase (FAS) activity in human adipocytes; assay type: cell-based
human adipocytes [3] = assay: Lipolysis (glycerol release into the culture medium) in human adipocytes; assay type: cell-based
Description: FIG. 4. The anti-lipolytic effect of glibenclamide in human adipocytes. Activation of lipolysis in adipocytes is typically measured by release of glycerol into the media. Human adipocytes were treated with 10 μM glibenclamide alone, 10 μM glibenclamide plus 10 μM diazoxide or 10 μM glibenclamide plus 30 μM nitrendipine for 48 hr. Glycerol release was determined as described (19). *p<0.01 vs. Control.
Human adipocytes were examined for changes in lipolysis regulation by measurement of glycerol release into the media. Glycerol was measured by using a standard method (19), although other techniques for measuring glycerol would be equally useful.
Human subcutaneous abdominal adipose tissue was obtained from patients undergoing elective abdominal cosmetic surgery, although other types of adipose tissue, such as mesenteric, retroperitoneal, perirenal, or omental may be useful in identifying these compounds. Preadipocytes are isolated by collagenase treatment of the tissue and cultured adipocytes prepared as described (patent filed; Jan. 29, 1999; Ser. No. 09/240,029). Agents that regulate calcium flux in adipocytes as noted above can mediate lipolysis. Human adipocytes may be cultured in multi-well plates with different treatments between 1 hour or 24 hours as indicated, and glycerol release into the culture medium was determined as an indicator for lipolysis using a one-step enzymatic fluorometric method. The media collected from 1 hr treatments were used directly for glycerol measurements. For 24 hr treatments, media were removed, and cells were washed with Hank's Balanced Salt Solution and incubated in fresh medium for a further 10-60 min. This media were then used for glycerol measurements for 24 hr treatments.
We next investigated the role of adipocyte SUR1 on lipolysis. Lipolysis was measured as follows. Human adipocytes were treated as described below and glycerol release into the culture medium was determined as an indicator for lipolysis using a one step enzymatic fluorometric method (19). After treatment medium was obtained, HClO4 was added for deproteinization.
Agents that regulate calcium flux in adipocytes as noted above can mediate lipolysis. Human adipocytes (1 mL cells/well) were incubated in 24-well plates with different treatments for either 1 hour or 24 hours as indicated, and glycerol release into the culture medium was determined as an indicator for lipolysis using a one-step enzymatic fluorometric method. The media collected from 1 hr treatments were used directly for glycerol measurements. For 24 hr treatments, media were removed, and cells were washed with Hank's Balanced Salt Solution and incubated in fresh medium for a further 30 min. This media were then used for glycerol measurements for 24 hr treatments. After medium was collected, HClO4 was added to give a final concentration of 3% for deproteinization. The sample was centrifuged at 9000×g for 20 min. The supernatant was then collected and neutralized with 10N NaOH. Samples were stored at −80° C. prior to glycerol assay. Cells were collected, homogenized and stored at −80° C. for subsequent total protein correction by a modified Bradford method using Coomassie Blue dye (PIERCE, Rockford, Ill.).

[4] = tested on: GPDH activity in human adipocytes; assay: GPDH activity in human adipocytes; assay type: cell-based; conditions: 10 μM glibenclamide plus 10 μM diazoxide
Description: FIG. 3. The lipogenic effect of glibenclamide in human adipocytes. As an indicator of lipogenic stimulation, both FAS and GPDH activity were measured. A. Glibenclamide stimulation of FAS activity. Human adipocytes were treated with 10 μM glibenclamide alone, 10 μM glibenclamide plus 10 μM diazoxide or 10 μM glibenclamide plus 30 μM nitrendipine for 48 hr. FAS was measured as described (6, 14). *p<0.001 vs. Control. B. Glibenclamide stimulation of GPDH activity. Human adipocytes were treated with 10 μM glibenclamide or 10 μM glibenclamide plus 10 μM diazoxide for 48 hr. GPDH activity was measured as described (14). *p<0.01 vs. Control.
To study the role of adipocyte SUR1 in regulating lipogenesis, we treated human adipocyte with SUR1 agonist and antagonist using FAS and GPDH activities as lipogenic markers. Human adipocytes were incubated in 24-well plates with the treatments indicated for 48 hr. FAS and GPDH activities were determined spectrophotometrically in crude cytosolic extracts of human adipocytes by measuring the oxidation rate of NADPH or NADH respectively, as previously described (14). The protein correction was measured by a modified Bradford method using Coomassie Blue dye (Pierce, Rockford, Ill.).

[5] = tested on: hyperinsulinemic obese adults; conditions: cited from earlier work
obese Zucker rats = conditions: cited from earlier work
human adipocytes [6] = assay: Intracellular Ca2+ ([Ca2+]i) by fura-2 fluorometry in isolated human adipocytes; assay type: cell-based
Description: FIG. 2. Glibenclamide stimulation of [Ca^2+]i in isolated human adipocyte. [Ca^2+]i in isolated human adipocytes was determined fluorometrically as previously described (4,7). Briefly, the human adipocytes isolated as described above were incubated in DMEM medium overnight for cell recovery. Prior to [Ca^2+]i measurement, adipocytes were pre-incubated in serum-free medium for 2 hrs, rinsed with HBSS solution containing the following components in mM: NaCl 138, CaCl2 1.8, MgSO4 0.8, NaH2PO4 0.9, NaHCO3 4, glucose 20, glutamine 6, HEPES 20 and BSA 1%. Cells were then loaded with fura-2 acetoxymethyl ester (10 μM) in the same buffer for 45 min at 37° C. in the dark with continuous shaking. To remove extracellular dye, cells were rinsed with HBSS for 3 times and resuspended in this solution at a concentration of 2×10^5 cells/ml. [Ca^2+]i was measured using dual excitation (340 and 380 nm) and single emission (510 nm) fluorometry. Following the establishment of stable baseline, the response to glibenclamide (10 and 20 μM) was determined. Digitonin (25 μM) and Tris/EGTA (100 mM) were used to measure maximal and minimal fluorescence to calibrate the signals, and final [Ca^2+]i was then calculated by the equation of Grynkiewicz et al. (17). […] Glibenclamide (Glib) was added at time designated by the arrow. B. The dose-responsive effect of glibenclamide on [Ca^2+]i in human adipocytes. Glibenclamide was added at 10 and 20 µM at the indicated times. *p<0.05 vs. Control, **p<0.05 vs. 10 μM glibenclamide.
The functionality of the SUR1 receptor was determined with respect to calcium mobilization and small molecule effects. [Ca^2+]i response was measured fluorometrically in isolated human adipocytes using a standard method (2,16). Briefly, isolated human adipocytes were incubated in DMEM or any other suitable medium such as Ham's F-10, Modified Eagle's media plus 5-10% fetal calf serum overnight for cell recovery. Prior to [Ca^2+]i measurement, adipocytes were pre-incubated in serum-free medium for 2 hrs, rinsed with HBSS solution containing the following components in mM: NaCl 138, CaCl2 1.8, MgSO4 0.8, NaH2PO4 0.9, NaHCO3 4, glucose 20, glutamine 6, HEPES 20 and BSA 1%. Cells were then loaded with fura-2 acetoxymethyl ester (10 μM) in the same buffer for 30-60 min at 37° C. in dark with continuous shaking. To remove extracellular dye, cells were rinsed with HBSS for three times and resuspended in this solution at a concentration of 1-10×10^5 cells/ml. [Ca^2+]i was measured using dual excitation (340 and 380 nm) and single emission (510 nm) fluorometry. Following the establishment of stable baseline, the response to a SUR agonist such as glibenclamide (1-20 μM) can be determined. Digitonin (25 μM) and Tris/EGTA (100 mM) were used to measure maximal and minimal fluorescence to calibrate the signals, and final [Ca^2+]i was then calculated by a known method such as described in Grynkiewicz et al (17).
Correlation of lipolysis with flux of intracellular calcium ([Ca^2+]i) concentration is then performed. [Ca^2+]i is measured in primary adipocytes. For primary adipocytes, 3 ml of cells are resuspended in 6 ml of HBSS and fura-2/AM was loaded for 80 min at 37° C. Extracellular fura-2/AM is washed three times with HBSS by centrifugation. [Ca^2+]i levels are then measured fluorometrically in suspensions using dual excitation (340 and 380 nm)/single emission (510 nm) fluorometry and [Ca^2+]i is calculated by the computer in the fluorometer. As a control, after loading fura-2/AM cells are pretreated with nitrendipine (RBI, Natick, Mass.) (30 μM, final concentration) for 10 min at 37° C.

Molecule: CNc1ccc2oc(C[C@H]3O[C@@]4(CC[C@H]3C)O[C@H]([C@H](C)C(=O)c3ccc[nH]3)[C@H](C)C[C@H]4C)nc2c1C(=O)O [A23187]
- triglyceride accumulation (human adipocytes [1]; two-hour exposure to 10 nM A23187, ensuing 48 hours, control 31.4±2.4): 52±7 μg/mg protein

Molecule: insulin
- fatty acid synthase activity ([2]; 1 nM insulin, control 3.95±0.11): 14.56±0.22 nmol/min/mg protein

Molecule: CCOC(=O)C1=C(C)NC(C)=C(C(=O)OC)C1c1cccc([N+](=O)[O-])c1 (stereo not drawn) [nitrendipine]
- fatty acid synthase activity ([2]; 1 nM insulin plus 30 μM nitrendipine): 4.12 ± 0.03 nmol/min/mg
- reduction in insulin-stimulated triglyceride accumulation (human adipocytes [1]; 1 nM insulin plus nitrendipine): 40%

Molecule: C=C[C@@]1(C)CC(=O)[C@]2(O)[C@@]3(C)[C@@H](O)CCC(C)(C)[C@@H]3[C@H](O)[C@H](OC(C)=O)[C@@]2(C)O1 [forskolin]
- increase in lipolysis (human adipocytes [3]; 1 μM forskolin): 48%

Molecule: [Cl-].[K+] [KCl]
- fatty acid synthase activity ([2]; 40 mM KCl for two hours, harvested approximately 72 hours later, control 3.93±0.11): 6.24±0.2 nmol NADPH/min/mg protein
- fatty acid synthase activity ([2]; 40 mM KCl, control 2.87 (diazoxide experiment)): 6.20±0.57 nmol/min/mg protein
- triglyceride content (human adipocytes [1]; 40 mM KCl): 43.5±0.5 μg/mg protein
- lipolysis, % of control levels (human adipocytes [3]; 10 mM KCl, twenty-four hour exposure): 75.9±4.1%
- inhibition of forskolin-induced lipolysis (human adipocytes [3]; 25 mM KCl, short-term (one-hour)): 42±5%
- inhibition of forskolin-induced lipolysis (human adipocytes [3]; 40 mM KCl, short-term (one-hour)): 50±1.7%

Molecule: CC1=NS(=O)(=O)c2cc(Cl)ccc2N1 [diazoxide]
- glibenclamide-stimulated increase in GPDH activity [4]: totally blocked
- fatty acid synthase activity ([2]; 1 nM insulin and 5 μM diazoxide): 7.08 ± 0.10 nmol/min/mg
- fatty acid synthase activity ([2]; 5 μM diazoxide and 2 μM glibenclamide): 1.00±0.10 nmol/min/mg protein
- fatty acid synthase activity ([2]; 5 μM diazoxide and 10 μM glibenclamide): 1.21±0.31 nmol/min/mg protein
- glibenclamide-caused increase in FAS activity ([2]; 10 μM glibenclamide plus 10 μM diazoxide, 48 hr): completely blocked
- fatty acid synthase activity ([2]; 40 mM KCl in the presence of 5 μM diazoxide): 3.24±0.41 nmol/min/mg protein
- glibenclamide-induced increases in fatty acid synthase activity ([2]; inclusion of 5 μM diazoxide): completely prevented
- effect on obesity [5]: significant antiobesity effect
- effect on obesity (obese Zucker rats): antiobesity effect
- [Ca2+]i response to any dose of glibenclamide (human adipocytes [6]; in the presence of 5 μM diazoxide): no detectable response
- [Ca2+]i response to any dose of glibenclamide (human adipocytes [6]; in the presence of 2-10 μM diazoxide): no detectable response

Molecule: NC(=O)CC[C@@H]1NC(=O)[C@H](Cc2ccccc2)NC(=O)[C@H](Cc2ccc(O)cc2)NC(=O)[C@@H](N)CSSC[C@@H](C(=O)N2CCC[C@H]2C(=O)N[C@@H](CCCN=C(N)N)C(=O)NCC(N)=O)NC(=O)[C@H](CC(N)=O)NC1=O [AVP, arginine vasopressin]
- fatty acid synthase activity ([2]; 1 nM AVP): 6.9±0.1 nmol/min/mg protein
- inhibition of forskolin-induced lipolysis (human adipocytes [3]; 1 nM AVP, short-term): 56±6.6%

B1: agouti: recombinant agouti protein, purified agouti gene product from a baculovirus expression system (protein, UniProt Q03288 23-131, looked up)
Agouti-signaling protein: HLALEETLGDDRSLRSNSSMNSLDFSSVSIVALNKKSKKISRKEAEKRKRSSKKKASMKKVARPPPPSPCVATRDSCKPPAPACCDPCASCQCRFFGSACTCRVLNPNC
- decrease in basal lipolysis (human adipocytes [3]; 100 nM recombinant agouti, 24 hr): 60%
- effect on basal lipolysis (human adipocytes [3]; 100 nM recombinant agouti, short-term (1 hr)): no effect
- forskolin-induced increase in lipolysis (human adipocytes [3]; 1 μM forskolin plus 100 nM agouti): reversed
- ACTH-induced lipolysis (human adipocytes [3]; short-term agouti treatment): totally inhibited

B2: parathyroid hormone (peptide, UniProt P01270 32-115, looked up)
Parathyroid hormone: SVSEIQLMHNLGKHLNSMERVEWLRKKLQDVHNFVALGAPLAPRDAGSQRPRKKEDNVLVESHEKSLGEADKADVNVLTKAKSQ
modifications: Parathyroid hormone
notes: stimulator of receptor-mediated Ca2+ influx
- fatty acid synthase activity ([2]; 4.8 nM PTH): 6.9±0.1 nmol/min/mg protein
- triglyceride content (human adipocytes [1]; 4.8 nM PTH): 54.5±0.6 μg/mg protein
